In patent publication US8367645B2, “Compositions and methods for treating hyperproliferative diseases” (priority 2008, dated 2013):
Marks after values point to notes of the source that are not given here.

Key:
[1] = tested on: transplanted human hepatoma (Hep G2 cells); assay: Volume of transplanted human hepatoma (Hep G2) in hairless mice; type: in vivo
Method: The procedures for performing this test were as follows. Hep G2 cells were prepared at 25*10^6 cells/ml and 0.2 ml of the cell suspension (5*10^6 cells) was injected in an exposed mouse mammary fat pad. When tumors achieved the required size (0.5 cm^3), animals would be treated with 50 μl of B10, dehydrated alcohol or 10% glucose solution once daily for 6 days. During 12 days after the last injection, tumor volume will be assessed by measuring tumor dimensions (long (L) and short (S)) and estimated it as V=0.52*L*S^2. 12 days after the last injection, mice would be sacrificed and tumors would be dissected, weighed and stored in a formaline solution for further evaluation.).

[2] = tested on: B16 (mice melanoma cells); settings: metformin 5 mM alone or in combination
Method: Each of the cell samples were then tested in a flow cytometer. The testing methodology and equipment used are set forth as follows. Cells were harvested and washed twice with phosphate buffered saline, (PBS) and fixed in 70% cold ethanol at 4° C. overnight. Before analysis, cells were washed twice with PBS, containing 1% bovine serum albumin (BSA), then resuspended with 400 μl PBS and treated with 100 μg/ml RNase A (Roche Diagnostics) and 50 μg/ml propidium iodide (PI) (Sigma). After incubation for 30 min at 37° C., the cells were subjected to DNA content analysis. propidium iodide, (PI) fluorescence was analyzed with a FACS calibur flowcytometer, (Becton Dickinson). Data from at least 10,000 cells were analyzed with software.
In Example 5, Metformin 5 mM; Metformin 5 mM+aspirin 2 mM; and Metformin 5 mM+aspirin 2 mM+serotonin creatinine sulfate complex 0.001 mM were tested to determine the effect on cell cycle on B16 (mice melanoma cells) during the G1, S and G2 cell phases. The procedure for testing using the flow cytometer was carried out as set forth in Example 1 above.

Compound | rate of elimination of hepatoma volume [1] [%] | Volume After Treatment ([1]; Hep G2 tumor, 50 μl once daily for 6 days, 10% G.S. 444 ± 199) | Volume Before Treatment ([1]; Hep G2 tumor, before treatment) | Volume Changes ([1]; Hep G2 tumor, ↓ = decrease, 10% G.S. ↑158%) | S ([2]; control 12.8) | G2 ([2]; control 23.1) | G1 ([2]; control 64)
CCO [Dehydration ethanol] | 52.7 | 89 ± 120** | 188 ± 119 | ↓52.7% | – | – | –
CN(C)C(=N)N=C(N)N [Metformin] | – | – | – | – | 4.6 | 23.6 | 71.8
